The values below are quoted from earlier work in patent US4181677A, “2-Benzoyl-3-alkoxy-2-alkenonitriles” (American Cyanamid Company, priority 1978, dated 1980).

For the series, the system named is joint and bone deterioration. Conditions: S. Wong et al. (1973); G. R. Bobalick et al. (1974).

`COc1ccc2c(c1)c(CC(=O)O)c(C)n2C(=O)c1ccc(Cl)cc1` [Indomethacin]: the “prevention of joint and bone deterioration” value was “prevent joint and bone deterioration”.
